In patent US9006228B2 (Merck Sharp & Dohme Corp., priority 2011, dated 2015):

biological target: T1, human GPR119 (Homo sapiens, UniProt Q8TDV5); assay: Measurement of GPR119 signaling (cAMP assay; LANCE kit or HTRF) in HEK293 cells stably transfected with human GPR119; assay type: cell-based; conditions: agonist-stimulated cAMP in HEK293 cells expressing human GPR119
T1 sequence (Q8TDV5 1-308 limits assumed): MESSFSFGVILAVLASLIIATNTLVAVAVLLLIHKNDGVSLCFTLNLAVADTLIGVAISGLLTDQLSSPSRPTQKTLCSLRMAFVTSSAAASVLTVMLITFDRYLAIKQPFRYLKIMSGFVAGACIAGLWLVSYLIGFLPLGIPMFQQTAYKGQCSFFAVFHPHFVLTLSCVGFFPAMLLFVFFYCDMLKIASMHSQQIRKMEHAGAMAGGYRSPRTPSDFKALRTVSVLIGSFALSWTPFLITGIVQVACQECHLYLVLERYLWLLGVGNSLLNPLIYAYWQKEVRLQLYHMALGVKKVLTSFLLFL
Procedure: Measurement of GPR119 Signaling Using LANCE 384-Well cAMP Kit
The adenylate cyclase assay was constructed following the LANCE™ cAMP Kit (Perkin Elmer, AD0264) instructions. […] The reaction was stopped by incubating with the supplied detection buffer containing the europium chelate of the Eu-SA/Biotin-cAMP tracer for 3 hours. The assay was performed in duplicate in a 384 well plate for duplicate plates. Fluorescence at 665 nm was measured using a PHERAstar instrument. Basal activity was determined using a DMSO control and maximum response was defined as cAMP stimulation produced by an internal agonist control. Standard cAMP concentrations were assayed concurrently for conversion of fluorescence signal to cAMP level. The data was analyzed using 4-parameter curve fit in Microsoft Excel.
Measurement of GPR119 Signaling Using a Cyclic AMP (cAMP) Homogenous Time Resolved Fluorescence (HTRF) Assay
Chinese hamster ovary (CHO) cell lines stably transfected with the permissive guanine nucleotide binding protein alpha 15 (Gα15) and murine GPR119 were maintained in DMEM media containing FBS, penicillin-streptomycin, puromycin, and G418 (geneticin). […] Agonist activation of the GPR119 receptor was measured in receptor transfected cells described above, treated with compounds of this invention, using a commercial homogenous time resolved fluorescence (HTRF) kit for measurement of cAMP (CisBio, Bedford, Mass.). The assay was performed in 96-well half-volume plates (murine) or 384-well plates (human) following the manufacturers instructions. Briefly, suspended cells were incubated with a dose titration of test compound at RT for 60 min, lysed, and incubated with HTRF reagents for an additional 60 min. The plate was read using an Envision multilabel reader (Perkin Elmer) adjusted to read time resolved fluorescence and the cAMP concentrations were extrapolated from a cAMP calibration curve. […] The concentration of test compound required to stimulate a half-maximal response (EC50), and efficacy as compared to an internal agonist control, was determined from a sigmoidal 4-parameter curve fit of the resulting plot of normalized activity versus compound concentration.

Row | SMILES | EC50 [nM]
1 | CCc1cnc(N2CCC([C@H]3C[C@H]3COCc3ccc(-c4ccnnc4)cc3)CC2)nc1 [Example 121] | 1.9
2 | COCc1cnc(N2CCC([C@H]3C[C@H]3COCc3ccc(CC(=O)N4CCOCC4)cc3F)CC2)nc1 [Example 146, 2-(3-fluoro-4-((((1R,2R)-2-(1-(5-(methoxymethyl)pyrimidin-2-yl)piperidin-4-yl)cyclopropyl)methoxy)methyl)phenyl)-1-morpholinoethanone] | 3.23
3 | CCc1cnc(N2CCC([C@H]3C[C@H]3COCc3ccc(S(C)(=O)=O)cc3)CC2)nc1 [Example 20, 5-ethyl-2-{4-[(1R,2R)-2-({[4-(methylsulfonyl)benzyl]oxy}methyl)cyclopropyl]piperidin-1-yl}pyrimidine] | 0.74
4 | CCS(=O)(=O)c1ccc(COC[C@@H]2C[C@@H]2C2CCN(c3nc(C4CC4)no3)CC2)cc1 [Example 29, 1-(3-cyclopropyl-1,2,4-oxadiazol-5-yl)-4-[(1R,2R)-2-({[4-(ethylsulfonyl)benzyl]oxy}methyl)cyclopropyl]piperidine] | 2.3
5 | CCc1cnc(N2CCC([C@H]3C[C@H]3COCc3ccc(-n4cnnn4)cn3)CC2)nc1 [Example 133, 2-(4-((1R,2R)-2-(((5-(1H-tetrazol-1-yl)pyridin-2-yl)methoxy)methyl)cyclopropyl)piperidin-1-yl)-5-ethylpyrimidine] | 5.6
6 | CCc1cnc(N2CCC([C@H]3C[C@H]3COCc3ccc(S(=O)(=O)C4CC4)cc3)CC2)nc1 [Example 56, 2-{4-[(1R,2R)-2-({[4-(cyclopropylsulfonyl)benzyl]oxy}methyl)cyclopropyl]piperidin-1-yl}-5-ethylpyrimidine] | 1.2
7 | CCOc1cnc(N2CCC([C@H]3C[C@H]3COCc3ccc(S(C)(=O)=O)c(F)c3)CC2)nc1 [Example 129, 5-ethoxy-2-(4-((1R,2R)-2-(((3-fluoro-4-(methylsulfonyl)benzyl)oxy)methyl)cyclopropyl)piperidin-1-yl)pyrimidine] | 1.65
8 | CCc1cnc(N2CCC([C@H]3C[C@H]3COCc3ccc(-c4cnccn4)cc3F)CC2)nc1 [Example 109, 2-{4-[({(1R,2R)-2-[1-(5-ethylpyrimidin-2-yl)piperidin-4-yl]cyclopropyl}methoxy)methyl]-3-fluorophenyl}pyrazine] | 2.3
9 | CS(=O)(=O)c1ccc(COC[C@@H]2C[C@@H]2C2CCN(c3ncc(Cl)cn3)CC2)nc1 [Example 1, 5-chloro-2-{4-[(1R,2R)-2-({[5-(methylsulfonyl)pyridin-2-yl]methoxy}methyl)cyclopropyl]piperidin-1-yl}pyrimidine] | 8.7
10 | CCc1cnc(N2CCC([C@H]3C[C@H]3COCc3ccc(S(=O)(=O)CC)cc3)CC2)nc1 [Example 57, 5-ethyl-2-{4-[(1R,2R)-2-({[4-(ethylsulfonyl)benzyl]oxy}methyl)cyclopropyl]piperidin-1-yl}pyrimidine] | 0.3
11 | O=S(=O)(CCO)c1ccc(COC[C@@H]2C[C@@H]2C2CCN(c3ncc(Br)cn3)CC2)nc1 [Example 87, 2-({6-[({(1R,2R)-2-[1-(5-bromopyrimidin-2-yl)piperidin-4-yl]cyclopropyl}methoxy)methyl]pyridin-3-yl}sulfonyl)ethanol] | 10.7
12 | CCc1cnc(N2CCC([C@H]3C[C@H]3COCc3ccc(-c4cncnc4)c(F)c3)CC2)nc1 [Example 113, 5-{4-[({(1R,2R)-2-[1-(5-ethylpyrimidin-2-yl)piperidin-4-yl]cyclopropyl}methoxy)methyl]-2-fluorophenyl}pyrimidine] | 2
13 | CC1(OC(=O)N2CCC([C@H]3C[C@H]3COCc3cc(F)c(S(C)(=O)=O)c(F)c3)CC2)CC1 [Example 49, 1-methylcyclopropyl 4-[(1R,2R)-2-({[3,5-difluoro-4-(methylsulfonyl)benzyl]oxy}methyl)cyclopropyl] piperidine-1-carboxylate] | 11.7
14 | CS(=O)(=O)c1ccc(COC[C@@H]2C[C@@H]2C2CCN(c3ncc(F)cn3)CC2)c(F)c1 [Example 69] | 2.4
15 | CCc1cnc(N2CCC([C@H]3C[C@H]3COCc3ccc(S(C)(=O)=O)cn3)CC2)nc1 [Example 3, 5-ethyl-2-{4-[(1R,2R)-2-({[5-(methylsulfonyl)pyridin-2-yl]methoxy}methyl)cyclopropyl]piperidin-1-yl}pyrimidine] | 1.5
16 | CCc1cnc(N2CCC([C@H]3C[C@H]3COCc3ccc(-c4cccnn4)cc3F)CC2)nc1 [Example 99, 3-{4-[({(1R,2R)-2-[1-(5-ethylpyrimidin-2-yl)piperidin-4-yl]cyclopropyl}methoxy)methyl]-3-fluorophenyl}pyridazine] | 0.1

Further compounds by falling EC50, results first:

Row | EC50 [nM] | SMILES
17 | 13.6 | CS(=O)(=O)c1ccc(COC[C@@H]2C[C@@H]2C2CCN(c3ncc(C=O)cn3)CC2)c(F)c1 [Example 71, 2-{4-[(1R,2R)-2-({[2-fluoro-4-(methylsulfonyl)benzyl]oxy}methyl)cyclopropyl]piperidin-1-yl} pyrimidine-5-carbaldehyde]
18 | 12 | O=S(=O)(c1ccc(COC[C@@H]2C[C@@H]2C2CCN(c3nc(C4CC4)no3)CC2)cc1)C1CC1 [Example 28, 1-(3-cyclopropyl-1,2,4-oxadiazol-5-yl)-4-[(1R,2R)-2-({[4-(cyclopropylsulfonyl)benzyl]oxy}methyl)cyclopropyl]piperidine]
19 | 8.2 | CS(=O)(=O)c1ccc(COC[C@@H]2C[C@@H]2C2CCN(C(=O)OC3CCC3)CC2)cc1 [Example 12, cyclobutyl 4-[(1R,2R)-2-({[4-(methylsulfonyl)benzyl]oxy}methyl)cyclopropyl]piperidine-1-carboxylate]
20 | 5.16 | COCc1cnc(N2CCC([C@H]3C[C@H]3COCc3ccc(CC(=O)N4CCC4)cc3F)CC2)nc1 [Example 145, 1-(azetidin-1-yl)-2-(3-fluoro-4-((((1R,2R)-2-(1-(5-(methoxymethyl)pyrimidin-2-yl)piperidin-4-yl)cyclopropyl)methoxy)methyl)phenyl)ethanone]
21 | 3.8 | O=S(=O)(CCO)c1ccc(COC[C@@H]2C[C@@H]2C2CCN(c3ncc(-c4ccoc4)cn3)CC2)c(F)c1 [Example 85, 2-[(3-fluoro-4-{[((1R,2R)-2-{1-[5-(3-furyl)pyrimidin-2-yl]piperidin-4-yl}cyclopropyl)methoxy]methyl}phenyl)sulfonyl]ethanol]
22 | 3.2 | CS(=O)(=O)c1c(F)cc(COC[C@@H]2C[C@@H]2C2CCN(c3ncc(F)cn3)CC2)cc1F [Example 47, 2-{4-[(1R,2R)-2-({[3,5-difluoro-4-(methylsulfonyl)benzyl]oxy}methyl)cyclopropyl]piperidin-1-yl}-5-fluoropyrimidine]
23 | 2.8 | CCS(=O)(=O)c1ccc(COC[C@@H]2C[C@@H]2C2CCN(c3ncc(COC)cn3)CC2)c(F)c1 [Example 127, 2-(4-((1R,2R)-2-(((4-(ethylsulfonyl)-2-fluorobenzyl)oxy)methyl)cyclopropyl)piperidin-1-yl)-5-(methoxymethyl)pyrimidine]
24 | 1 | O=C(c1c(F)cc(COC[C@@H]2C[C@@H]2C2CCN(c3ncc(Cl)cn3)CC2)cc1F)C1CC1 [Example 53]
25 | 0.89 | CC(C)c1noc(N2CCC([C@H]3C[C@H]3COCc3ccc(CC(=O)N4CC(F)C4)cc3F)CC2)n1 [Example 139, 2-(3-fluoro-4-((((1R,2R)-2-(1-(3-isopropyl-1,2,4-oxadiazol-5-yl)piperidin-4-yl)cyclopropyl)methoxy)methyl)phenyl)-1-(3-fluoroazetidin-1-yl)ethanone]
26 | 0.66 | CC(C)c1noc(N2CCC([C@H]3C[C@H]3COCc3ccc(CC(=O)N(C)C)c(F)c3)CC2)n1 [Example 140, 2-(2-fluoro-4-((((1R,2R)-2-(1-(3-isopropyl-1,2,4-oxadiazol-5-yl)piperidin-4-yl)cyclopropyl)methoxy)methyl)phenyl)-N,N-dimethylacetamide]
27 | 0.6 | CS(=O)(=O)c1ccc(COC[C@@H]2C[C@@H]2C2CCN(c3nc(C4CC4)no3)CC2)cc1F [Example 37, 1-(3-cyclopropyl-1,2,4-oxadiazol-5-yl)-4-[(1R,2R)-2-({[3-fluoro-4-(methylsulfonyl)benzyl]oxy}methyl)cyclopropyl]piperidine]
28 | 0.18 | CS(=O)(=O)c1ccc(COC[C@@H]2C[C@@H]2C2CCN(c3ncc(Cl)cn3)CC2)c(F)c1 [Example 68]
